The text below walks through data of publication PMC9964746, “Mechanism of Action and Structure–Activity Relationships of Tetracyclic Small Molecules Acting as Universal Positive Allosteric Modulators of the Cholecystokinin Receptor” (Membranes, 2023).

Assay type in all cases: cell-based
Assay [1] deals with T1, vasopressin-2 receptor (AVP2R) (Homo sapiens, UniProt P30518).
T1 construct: expressed in transfected cells; host or cells: CHO-K1 (PAM format); HEK-293 (agonist format)
The experiment in a line: AVP2R cAMP HTRF accumulation assay. As to conditions: for AVP2R PAM (cAMP) Score (activity score = normalized Emax × pEC50): PAM format. In outline: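 CHO-K1 AVP2R cells (PAM format) or HEK-293 AVP2R cells (agonist format) incubated 30 min at room temperature with compounds and vasopressin in HBSS with 5 mM HEPES, 0.5 mM IBMX, 0.075% BSA. cAMP read by HTRF after 30 min; 16-point 2-fold dose–response in duplicate.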
Background: Time-resolved FRET reads energy transfer from a long-lived donor to a nearby acceptor.

A further assay addresses T2, CCK2R (Homo sapiens, UniProt P32239).
T2 construct: expressed in transfected cells; host or cells: CHO-K1 (CHO-CCK2R line)
T2 sequence (P32239 1-447): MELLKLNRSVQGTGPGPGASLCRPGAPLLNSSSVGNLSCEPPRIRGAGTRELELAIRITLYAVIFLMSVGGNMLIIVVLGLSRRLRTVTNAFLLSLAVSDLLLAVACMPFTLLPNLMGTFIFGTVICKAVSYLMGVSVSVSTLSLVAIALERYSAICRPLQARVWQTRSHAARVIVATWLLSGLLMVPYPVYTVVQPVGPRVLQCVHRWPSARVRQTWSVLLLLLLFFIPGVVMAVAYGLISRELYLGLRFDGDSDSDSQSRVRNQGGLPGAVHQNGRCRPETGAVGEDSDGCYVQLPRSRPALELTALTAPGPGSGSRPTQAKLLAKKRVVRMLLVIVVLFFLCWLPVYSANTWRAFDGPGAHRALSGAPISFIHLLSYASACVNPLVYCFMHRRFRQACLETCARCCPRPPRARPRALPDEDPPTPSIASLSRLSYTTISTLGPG
Briefly: Intracellular calcium assay (Fura-8-AM) in CHO-CCK2R cells. As to conditions: compound 10 µM. Here is the method: Biological activity was quantified in the CHO cell lines described above using intracellular calcium assays that were performed, as previously described, using Fura-8-AM (AAT Bioquest, Pleasonton, CA, USA). Full agonist dose–response curves were performed along with determination of maximal responses to 0.1 mM ATP, targeting an endogenous receptor present on the parental cells. Concentration–response curves of peak intracellular calcium responses were analyzed and plotted as percentages of maximal responses using non-linear regression analysis in Prism 9.1 (GraphPad).
(Calcium assays in cells follow changes in intracellular calcium, usually with a dye or a luminescent sensor.)

Assay [2] has as its target T3, CCK1R (Homo sapiens, UniProt P32238).
T3 sequence (P32238 1-428): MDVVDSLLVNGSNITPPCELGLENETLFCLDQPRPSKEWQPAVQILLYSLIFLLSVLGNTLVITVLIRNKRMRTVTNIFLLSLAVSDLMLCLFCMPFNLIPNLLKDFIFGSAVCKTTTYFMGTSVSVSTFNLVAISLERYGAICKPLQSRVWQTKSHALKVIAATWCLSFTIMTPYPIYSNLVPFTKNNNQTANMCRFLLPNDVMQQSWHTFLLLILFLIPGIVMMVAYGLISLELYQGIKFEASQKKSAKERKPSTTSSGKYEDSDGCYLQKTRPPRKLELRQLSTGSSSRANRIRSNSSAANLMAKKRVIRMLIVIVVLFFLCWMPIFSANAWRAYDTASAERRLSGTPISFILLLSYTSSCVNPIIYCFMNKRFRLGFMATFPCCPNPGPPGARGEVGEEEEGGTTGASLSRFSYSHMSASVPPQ
Briefly: Receptor internalization assay with alexa488-CCK. Also noted: expressed in transfected cells; host or cells: HEK-293. As to conditions: hits at 10 µM; cell surface receptor labelled with alexa488-CCK. The protocol:
Receptor internalization assays were performed with the fluorescent alexa488-CCK ligand used to visualize cell surface receptors after treatment and fixation with 2% paraformaldehyde (Electron Microscopy Sciences, Cat# 15710), as we described. Images were acquired with a Zeiss Axiovert 200M inverted epifluorescence microscope.

In assay [3] the target is T3, CCK1R. The experiment in a line: CCK1R cAMP accumulation assay, PAM format, HEK-293 CCK1R cells. Also noted: expressed in transfected cells; host or cells: HEK-293. As to conditions: for EC50: EC20 concentration of CCK; for Emax: HEK293, EC20 concentration of CCK. Here is the method:
Possible off-target biological effects. […] Here, we tested them at the vasopressin-2 receptor (AVP2R), representing a class A GPCR structurally related to CCK1R, which is coupled to Gs. The activity at AVP2R was tested using AVP2R-overexpressing CHO-K1 (PAM format) or HEK-293 (agonist format) cells, stimulating the cells with vasopressin. Original hits were tested in both agonist and PAM formats. Since all recognized compound responses were present in both formats, we continued to screen analogs in only the PAM format (also able to capture agonist effects) in CHO-K1 AVP2R cells for potential enhanced sensitivity. The dose–response data sets for original hits were combined, as the PAM and agonist effects were indistinguishable. In brief, arginine vasopressin (AVP) orthosteric stimulator dilutions and ligand and compound dose–response titrations in DMSO were transferred onto a 1536-well plate (Corning #3725) using an Echo liquid handler (Labcyte). Thawed cryopreserved cell stocks were diluted in stimulation buffer consisting of HBSS (Hank’s Balanced Salt Solution with Ca^2+ and Mg^2+, Gibco #24020117), 5 mM HEPES (hydroxyethyl piperazineethanesulfonic acid), 0.5 mM IBMX (3-isobutyl-1-methylxanthine, Sigma-Aldrich), and 0.075% BSA (7.5% DTPA-purified bovine serum albumin, PerkinElmer). The resulting cell suspension was added to the microplate and incubated with test compounds at room temperature for 30 min. Then, the detection reagents from the Cisbio cAMP Gs Dynamic HTRF detection kit were added. The plate was kept at room temperature for 30 min and read on a PHERAstar FSX microplate reader. Dose–response curves were performed as 16-point 2-fold dilutions in duplicate in at least two independent experiments.
For CCK1R-induced Gs signaling studies, we performed cAMP accumulation assays as described above and as previously reported, utilizing the HEK-293 cells overexpressing CCK1Rs and the EC20 concentration of CCK for screening in PAM format.
A general note: cAMP levels reflect the balance of adenylyl cyclase and phosphodiesterase activity.

[4] abbreviates: CHO-K1 AVP2R cells, PAM format with vasopressin, original hits: agonist and PAM data combined, average ± SD.

Several values for one entry are separate records, joined by “and”; a condition that tells them apart may be missing. Identical values can stand only once.

T1 sequence (P30518 whole entry): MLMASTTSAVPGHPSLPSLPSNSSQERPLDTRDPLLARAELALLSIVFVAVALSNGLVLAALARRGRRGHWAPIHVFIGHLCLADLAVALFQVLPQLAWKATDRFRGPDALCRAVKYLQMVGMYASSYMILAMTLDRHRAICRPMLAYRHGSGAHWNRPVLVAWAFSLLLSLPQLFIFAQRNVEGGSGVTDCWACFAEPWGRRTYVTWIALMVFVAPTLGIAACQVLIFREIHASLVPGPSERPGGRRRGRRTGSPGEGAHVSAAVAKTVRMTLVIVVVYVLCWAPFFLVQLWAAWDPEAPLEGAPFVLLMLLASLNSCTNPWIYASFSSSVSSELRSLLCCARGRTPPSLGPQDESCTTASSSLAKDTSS

As for `CCN(CC)CCNc1ncnc2c1sc1nc(N3CCOCC3)c3c(c12)CCCC3` [CMP-1], the Emax (as a rule, the maximal effect, on the per cent scale that the assay sets) in assay [1] (CHO-K1, CHO-K1 AVP2R cells, PAM format with vasopressin, original hits: agonist and PAM data combined, average ± SD) stood at 21%. Also, the “AVP2R PAM (cAMP) Score (activity score = normalized Emax × pEC50)” value in assay [1] (CHO-K1 AVP2R cells) is 1.0 and 1.02. Besides, in assay [1] (setting [4]), the “AVP2R PAM (cAMP) Emax” value came out at 20.7 ± 9.8% and the EC50 – broadly, the concentration giving half of the maximal effect – is 12 ± 7.1 µM. The “Effect on CCK action at CCK2R (intracellular calcium)” value at CCK2R is “no effect on CCK2R”. Further, on CCK1R [2], the CCK1R internalization result was “neither “hit” cleared the receptor from the cell surface”. For the same molecule, at CCK1R [3], the midpoint of the response, the EC50, lay at 14.7 ± 7.3 µM and the maximum response (Emax) was 48 ± 31%.

For `CCCc1nc2oc3c(NCCCN(C)C)ncnc3c2c2c1CCCC2` [CMP-28], the “AVP2R PAM (cAMP) Score (activity score = normalized Emax × pEC50)” value in assay [1] (CHO-K1 AVP2R cells) was found to be 3.53. Also, in assay [1] (setting [4]), the half-maximal effective concentration (EC50) was found to be 15 ± 13.6 µM and the Emax came out at 73 ± 16%. In addition, the “Effect on CCK action at CCK2R (intracellular calcium)” value on CCK2R is on record as “no effect on CCK2R”. In addition, the CCK1R internalization entry on CCK1R [2] was “neither “hit” cleared the receptor from the cell surface”. Besides, at CCK1R [3], the concentration giving a half-maximal response (EC50) worked out at 15.6 ± 12.4 µM and the maximum response (Emax) turned out to be 56 ± 26%.
